Assays:
stachydrine demethylase [1] = target: T1, stachydrine demethylase (Sinorhizobium meliloti, UniProt Q92ZP9); conditions: 2.3 A; pH 7 HEPES; 25 mM hexaamine CoCl2
T1 construct: gene stc2

lysozyme = target: T2, lysozyme (Gallus gallus, UniProt P00698); experiment: X-ray structure of co-crystal (fragment screen); format: binding; conditions: pH 4.6 acetate, 4% NaCl
T2 construct: gene LYZ

stachydrine demethylase [2] = target: T1, stachydrine demethylase; experiment: X-ray structure of co-crystal; demethylated product seen; format: binding; conditions: 2.3 A; pH 7 HEPES; 25 mM hexaamine CoCl2; N-methyl group cleaved on X-ray exposure, only L-proline in the density
trypsin = target: T3, trypsin (Bos taurus, UniProt P00760); experiment: X-ray structure of co-crystal (fragment screen); format: binding; conditions: pH 7 HEPES, 10 mM CaCl2
T3 construct: gene PRSS1
T3 sequence (P00760 24-246): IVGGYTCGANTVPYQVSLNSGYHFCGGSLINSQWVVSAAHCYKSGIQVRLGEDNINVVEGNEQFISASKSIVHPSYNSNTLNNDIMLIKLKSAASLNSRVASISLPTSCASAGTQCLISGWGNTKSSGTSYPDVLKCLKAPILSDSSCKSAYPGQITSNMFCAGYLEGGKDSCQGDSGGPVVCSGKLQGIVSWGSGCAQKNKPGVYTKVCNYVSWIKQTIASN

O=C(O)[C@@H]1CCCN1 [L-proline] was tested, and the “X-ray structure of co-crystal” value (stachydrine demethylase [1]) was “When L-proline was co-crystallized with stachydrine demethylase, the L-proline was observed in the electron density”.

With CC(=O)N[C@H]1C(O)O[C@H](CO)[C@@H](O)[C@@H]1O (stereo partly drawn) [N-acetylglucosamine] the “X-ray structure of co-crystal (fragment screen)” value (lysozyme) was “The known N-acetylglucosamine ligand was easily identified in the electron density”.

In the case of CN1CCC[C@H]1C(=O)O [N-methylproline], the “X-ray structure of co-crystal; demethylated product seen” value (stachydrine demethylase [2]) is reported as “exposure to X-rays quickly induces enzymatic cleavage of the N-methyl group, leaving behind L-proline”.

N=C(N)c1ccccc1 [benzamidine] was tested, and the “X-ray structure of co-crystal (fragment screen)” value (lysozyme) was “Benzamidine was also observed to bind to lysozyme, a previously unreported result (PDB entry 4n8z)” and the “X-ray structure of co-crystal (fragment screen)” value (trypsin; known control) was “the known benzamidine ligand in the best diffracting no-hit screen”.

With c1c[nH]cn1 [imidazole] the “X-ray structure of co-crystal (fragment screen)” value (trypsin; 10 mg/ml benzamidine present, allosteric site distant from the active site) was “imidazole (a previously unreported allosteric binding mode that is distant from the active site; PDB entry 4ncy)”.
